Measurements as given in patent publication US8048884B2, “Substituted piperazinyl pyrazines and pyridines as 5-HT7 receptor antagonists” (Eli Lilly and Company, priority 2007, dated 2011).
Several values for one entry are separate records, joined by “and”; a condition that tells them apart may be missing. Identical values can stand only once. Counter-ions that a name gives are not always drawn.

Tests used:
5-HT7 receptor [1] = target: T1, 5-HT7 receptor (Homo sapiens, UniProt P34969); assay: 5-HT7 receptor affinity: [3H]5-HT radioligand binding assay; conditions: [3H]5-HT competition, membranes of AV-12 cells
T1 construct: expressed in transfected cells
Experimental: Membranes for affinity and antagonist activity assays are prepared essentially as follows. AV-12 cells, stably expressing the 5-HT7 receptor, are grown as a monolayer in 5×T-150 flasks in DMEM/F12 (3:1) 5% FBS, 20 mM HEPES, […] geneticin, 50 mg/mL tobramycin. After growing to 90% confluence the media is removed and replaced with Hybritech media (a low calcium version of DMEM/F12 media having 11 mg/L calcium) containing 2% horse serum, […] dextran sulfate, 1 mg/mL nucellin, 1 mg/mL human transferrin (partially iron saturated), 50 mg/mL tobramycin, 20 mM HEPES, […] geneticin, 0.04% pluronic F68. The cells are grown overnight to condition the media. The next morning the conditioned media (−150 mL total) is removed and set aside in a sterile container. The cells are trypsinized and collected in the conditioned media. […]
To prepare membranes, the above pellets are resuspended in ice-cold Tris buffer (20 mM Tris HCl, pH 7.4 at 23° C., 5 mM EDTA) and homogenized with a Wheaton tissue grinder. […] Protein concentrations are determined by the method of Bradford. […]
(§1) [^3H] […] The reactions are incubated at room temperature for 3 hr. and then counted in a Trilux Microbeta™ scintillation counter to detect receptor-bound radioligand. Binding data is analyzed by computer-assisted 4 parameter fit analysis (ID Business Solutions Ltd, Guildford, Surrey, UK). […]

5-HT1A = target: T2, 5-HT1A (Homo sapiens, UniProt P08908); assay: Radioligand binding assay, 5-HT1A subtype
T2 construct: expressed in transfected cells
T2 sequence (P08908 1-422): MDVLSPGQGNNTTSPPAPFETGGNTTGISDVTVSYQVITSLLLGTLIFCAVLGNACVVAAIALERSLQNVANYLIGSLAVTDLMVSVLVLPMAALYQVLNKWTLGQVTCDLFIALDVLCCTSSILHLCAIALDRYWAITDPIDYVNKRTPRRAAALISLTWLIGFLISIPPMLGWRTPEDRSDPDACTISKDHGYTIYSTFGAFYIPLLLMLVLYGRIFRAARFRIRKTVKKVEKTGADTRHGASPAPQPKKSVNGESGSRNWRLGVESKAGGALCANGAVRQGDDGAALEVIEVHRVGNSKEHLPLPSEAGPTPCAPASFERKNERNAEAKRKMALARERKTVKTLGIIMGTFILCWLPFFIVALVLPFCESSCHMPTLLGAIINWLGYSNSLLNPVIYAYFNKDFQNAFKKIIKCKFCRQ
Experimental: as §1
(§2) Affinity for other serotonin receptor subtypes as well as for alpha 1 & 2 adrenergic receptors can readily be determined by modification of the above described radioligand receptor binding assay using membranes derived from cells stably expressing the desired receptor subtype including the 5-HT1A, 5-HT1B, and 5-HT1D subtypes, as well as the 5-HT2A, 5-HT2B, 5-HT2C, 5-HT4, 5-HT5, and 5-HT6 receptor subtypes. […]

5-HT1B = target: T3, 5-HT1B (Homo sapiens, UniProt P28222); assay: Radioligand binding assay, 5-HT1B subtype
T3 construct: expressed in transfected cells
Experimental: as §1, §2

5-HT1D = target: T4, 5-HT1D (Homo sapiens, UniProt P28221); assay: Radioligand binding assay, 5-HT1D subtype
T4 construct: expressed in transfected cells
Experimental: as §1, §2

5-HT2A = target: T5, 5-HT2A (Homo sapiens, UniProt P28223); assay: Radioligand binding assay, 5-HT2A subtype
T5 construct: expressed in transfected cells
Experimental: as §1, §2

5-HT2B = target: T6, 5-HT2B (Homo sapiens, UniProt P41595); assay: Radioligand binding assay, 5-HT2B subtype
T6 construct: expressed in transfected cells
Experimental: as §1, §2

5-HT2C = target: T7, 5-HT2C (Homo sapiens, UniProt P28335); assay: Radioligand binding assay, 5-HT2C subtype
T7 construct: expressed in transfected cells
T7 sequence (P28335 33-458): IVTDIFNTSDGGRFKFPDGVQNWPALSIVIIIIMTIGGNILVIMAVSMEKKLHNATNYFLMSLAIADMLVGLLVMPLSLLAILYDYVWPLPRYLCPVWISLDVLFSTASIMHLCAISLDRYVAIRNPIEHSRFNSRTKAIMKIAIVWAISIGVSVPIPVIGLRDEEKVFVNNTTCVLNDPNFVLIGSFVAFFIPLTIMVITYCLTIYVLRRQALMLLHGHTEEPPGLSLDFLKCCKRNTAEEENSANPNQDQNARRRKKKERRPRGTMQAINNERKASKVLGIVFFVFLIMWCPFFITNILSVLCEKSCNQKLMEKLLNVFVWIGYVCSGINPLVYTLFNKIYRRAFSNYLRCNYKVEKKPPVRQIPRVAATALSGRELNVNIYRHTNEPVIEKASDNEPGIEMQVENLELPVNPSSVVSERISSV
Experimental: as §1, §2

5-HT4 = target: T8, 5-HT4 (Homo sapiens, UniProt Q13639); assay: Radioligand binding assay, 5-HT4 subtype
T8 construct: expressed in transfected cells
Experimental: as §1, §2

5-HT5 = target: T9, 5-HT5 (Homo sapiens, UniProt P47898); assay: Radioligand binding assay, 5-HT5 subtype
T9 construct: expressed in transfected cells
Experimental: as §1, §2

5-HT6 = target: T10, 5-HT6 (Homo sapiens, UniProt P50406); assay: Radioligand binding assay, 5-HT6 subtype
T10 construct: expressed in transfected cells
Experimental: as §1, §2

alpha 1 adrenergic = assay: Radioligand binding assay, alpha 1 adrenergic
Experimental: as §1, §2

alpha 2 adrenergic = assay: Radioligand binding assay, alpha 2 adrenergic
Experimental: as §1, §2

5-HT7 receptor [2] = target: T1, 5-HT7 receptor; assay: Functional antagonist assay: measurement of cAMP formation; type: cell-based; conditions: 5-HT7-expressing AV-12 cells; for Kb: antagonist potency
Experimental: For cAMP functional assays, the 5-HT7-expressing cells from above are grown in 150 cm^2 flasks and processed essentially as follows. The media is aspirated from the flasks and cells are washed with 1 mL PBS. The cells are released from monolayer with enzyme free cell dissociation solution (Specialtymedia CAT#S-004-B, www.Chemicon.com) and resuspended in complete media. A sample of the cells is counted and the remainder is centrifuged as above for 3 min. The resulting cell pellet is resuspended in PBS at a concentration of 1×10^6 cells per mL and used directly in the cAMP assay as described.
The 5-HT7 receptor is functionally coupled to a G-protein as measured by the ability of serotonin and serotonergic drugs to stimulate cAMP production in CHO cells transfected with the 5-HT7 receptor. (Ruat, et al., Proceedings of the National Academy of Sciences (USA), 90:8547-8551, 1993.) Accordingly, functional receptor activity can be measured by measuring adenylate cyclase activity using a commercially available cell-based, homogeneous, time resolved fluorescence assay kit, as for example the kit produced by Cisbio-US, Inc. (Bedford, Mass.). Essentially, and using the protocol and reagents provided by the manufacturer, approximately 20,000 human 5-HT7 receptor-expressing AV-12 cells (as described above) are used with test compound dose concentrations in the range described for the binding assay. […] A cAMP standard curve is also run in every experiment. After the assay plates are read in an Envision™ instrument (Perkin-Elmer, Wellesley Mass.), the data are normalized to the standard curve and converted to percent inhibition for data analysis as described above for the receptor binding assay results. The Kb (nM) is calculated as a measure of the antagonist potency of the compound. Preferred compounds are those having percent inhibition>75%. Still other preferred compounds are those having Kb<50 nM.

[3] = system: male Harlan Sprague-Dawley rats; assay: Animal model of dural plasma protein extravasation (PPE); type: in vivo, rat
Excerpt: The dural plasma protein extravasation model is an established model for migraine. The ability of a test compound to reduce extravasation of plasma proteins into the dura under assay conditions is considered indicative of the compound's ability to reduce or prevent the dural inflammation thought to be symptomatic of migraine. (see Johnson, K. W., et al., Neuroreport, 8 (1997) 2237-2240.)
To assay compounds for their ability to reduce or prevent dural plasma protein extravasation, male Harlan Sprague-Dawley rats (250-350 g) are anesthetized with sodium pentobarbital (65 mg/kg, i.p.) and placed in a stereotaxic frame (David Kopf Instruments) with the incisor bar set at −2.5 mm. Following a midline sagittal scalp incision, 2 pairs of bilateral holes are drilled through the skull (3.2 mm posterially, 1.8 and 3.8 mm laterally, all coordinates referenced to bregma). […]
The amount of FITC-BSA for each sample is quantified with a fluorescence microscope (Zeiss) equipped with a grating monochromator, a spectrophotometer, and a computer driven stage. Fluorescence measurements are taken at 25 points in a 5×5 grid in 500 μm steps on each dural sample with an excitation wavelength of approximately 490 nm and emission intensity measured at approximately 535 nm. The mean and standard deviation of the 25 measurements are determined. […]

T1 sequence (P34969 whole entry): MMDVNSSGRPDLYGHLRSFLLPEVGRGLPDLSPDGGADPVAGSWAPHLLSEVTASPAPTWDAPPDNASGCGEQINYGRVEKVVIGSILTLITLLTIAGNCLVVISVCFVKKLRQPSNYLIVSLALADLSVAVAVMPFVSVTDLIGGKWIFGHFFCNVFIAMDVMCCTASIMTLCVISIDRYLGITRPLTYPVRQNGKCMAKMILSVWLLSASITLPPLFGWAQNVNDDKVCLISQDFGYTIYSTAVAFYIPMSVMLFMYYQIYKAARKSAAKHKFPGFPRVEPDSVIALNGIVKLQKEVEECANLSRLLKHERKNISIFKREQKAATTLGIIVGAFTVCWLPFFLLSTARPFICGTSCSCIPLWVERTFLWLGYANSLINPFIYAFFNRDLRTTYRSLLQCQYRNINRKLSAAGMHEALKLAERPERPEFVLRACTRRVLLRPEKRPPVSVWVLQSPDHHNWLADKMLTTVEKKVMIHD
T8 sequence (Q13639 whole entry, species assumed): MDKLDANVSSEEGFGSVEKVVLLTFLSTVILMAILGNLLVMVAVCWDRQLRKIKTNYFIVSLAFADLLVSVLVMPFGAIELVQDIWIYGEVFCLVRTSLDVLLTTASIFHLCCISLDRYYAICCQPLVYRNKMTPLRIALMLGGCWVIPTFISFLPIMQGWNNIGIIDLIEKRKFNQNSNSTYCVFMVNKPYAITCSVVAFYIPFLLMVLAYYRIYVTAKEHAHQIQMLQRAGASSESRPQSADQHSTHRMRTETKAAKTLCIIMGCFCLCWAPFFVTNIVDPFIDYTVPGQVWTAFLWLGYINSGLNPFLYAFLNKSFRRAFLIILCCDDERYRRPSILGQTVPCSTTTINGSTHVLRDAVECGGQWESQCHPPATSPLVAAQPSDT
T6 sequence (P41595 whole entry, species assumed): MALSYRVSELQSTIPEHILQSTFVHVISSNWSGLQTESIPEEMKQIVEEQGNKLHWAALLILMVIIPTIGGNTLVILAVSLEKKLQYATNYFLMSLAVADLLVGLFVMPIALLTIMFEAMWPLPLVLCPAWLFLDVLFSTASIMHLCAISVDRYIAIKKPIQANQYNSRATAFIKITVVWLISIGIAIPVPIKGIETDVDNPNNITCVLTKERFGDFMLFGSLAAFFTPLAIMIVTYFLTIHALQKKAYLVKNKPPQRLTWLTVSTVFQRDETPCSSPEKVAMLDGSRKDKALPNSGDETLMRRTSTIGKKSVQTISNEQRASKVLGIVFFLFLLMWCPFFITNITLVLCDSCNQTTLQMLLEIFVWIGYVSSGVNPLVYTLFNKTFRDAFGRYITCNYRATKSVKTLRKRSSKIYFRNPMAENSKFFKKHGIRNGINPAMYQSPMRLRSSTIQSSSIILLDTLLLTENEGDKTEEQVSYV
T9 sequence (P47898 whole entry, species assumed): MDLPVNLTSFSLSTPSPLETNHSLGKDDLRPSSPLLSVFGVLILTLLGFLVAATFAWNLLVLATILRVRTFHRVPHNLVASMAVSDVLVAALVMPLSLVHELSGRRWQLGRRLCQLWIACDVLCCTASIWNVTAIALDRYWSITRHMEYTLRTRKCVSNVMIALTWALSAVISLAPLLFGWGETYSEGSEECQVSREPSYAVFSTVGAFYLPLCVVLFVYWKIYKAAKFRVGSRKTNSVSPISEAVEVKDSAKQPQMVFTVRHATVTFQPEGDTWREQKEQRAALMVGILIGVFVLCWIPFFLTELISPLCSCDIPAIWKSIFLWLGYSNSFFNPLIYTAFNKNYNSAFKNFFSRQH
T10 sequence (P50406 whole entry, species assumed): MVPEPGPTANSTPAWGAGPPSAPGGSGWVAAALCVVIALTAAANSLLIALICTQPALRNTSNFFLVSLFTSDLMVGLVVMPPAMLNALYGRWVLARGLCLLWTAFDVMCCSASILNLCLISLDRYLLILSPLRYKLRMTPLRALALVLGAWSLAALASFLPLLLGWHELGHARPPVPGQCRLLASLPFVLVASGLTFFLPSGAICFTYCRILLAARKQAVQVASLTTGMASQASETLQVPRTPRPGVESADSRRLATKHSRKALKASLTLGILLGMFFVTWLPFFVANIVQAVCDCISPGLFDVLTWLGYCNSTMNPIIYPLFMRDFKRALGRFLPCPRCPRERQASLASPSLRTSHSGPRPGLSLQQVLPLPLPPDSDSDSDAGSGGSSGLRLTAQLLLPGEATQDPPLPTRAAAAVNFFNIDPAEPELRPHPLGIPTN
T3 sequence (P28222 whole entry, species assumed): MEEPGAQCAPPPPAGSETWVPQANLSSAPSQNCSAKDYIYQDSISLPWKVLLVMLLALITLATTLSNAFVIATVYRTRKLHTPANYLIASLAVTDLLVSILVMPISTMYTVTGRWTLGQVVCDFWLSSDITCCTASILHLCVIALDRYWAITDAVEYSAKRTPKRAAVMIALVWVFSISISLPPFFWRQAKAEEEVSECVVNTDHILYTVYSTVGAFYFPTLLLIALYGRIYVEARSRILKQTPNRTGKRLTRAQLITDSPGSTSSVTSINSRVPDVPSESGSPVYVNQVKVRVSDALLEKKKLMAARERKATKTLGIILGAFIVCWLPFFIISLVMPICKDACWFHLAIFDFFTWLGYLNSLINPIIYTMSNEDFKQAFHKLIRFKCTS
T5 sequence (P28223 whole entry, species assumed): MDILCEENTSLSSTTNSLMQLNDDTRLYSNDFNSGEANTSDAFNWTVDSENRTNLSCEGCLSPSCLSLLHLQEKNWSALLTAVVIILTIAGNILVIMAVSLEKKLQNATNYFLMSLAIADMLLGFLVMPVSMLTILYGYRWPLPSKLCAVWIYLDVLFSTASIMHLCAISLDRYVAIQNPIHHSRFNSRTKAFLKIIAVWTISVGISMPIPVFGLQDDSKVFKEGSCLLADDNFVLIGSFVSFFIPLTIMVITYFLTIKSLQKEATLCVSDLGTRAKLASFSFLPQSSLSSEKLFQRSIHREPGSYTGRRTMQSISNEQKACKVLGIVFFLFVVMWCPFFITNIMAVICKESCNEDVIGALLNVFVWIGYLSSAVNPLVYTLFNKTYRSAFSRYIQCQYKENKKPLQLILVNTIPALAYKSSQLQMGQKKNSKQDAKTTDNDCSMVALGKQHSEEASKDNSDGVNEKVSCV
T4 sequence (P28221 whole entry, species assumed): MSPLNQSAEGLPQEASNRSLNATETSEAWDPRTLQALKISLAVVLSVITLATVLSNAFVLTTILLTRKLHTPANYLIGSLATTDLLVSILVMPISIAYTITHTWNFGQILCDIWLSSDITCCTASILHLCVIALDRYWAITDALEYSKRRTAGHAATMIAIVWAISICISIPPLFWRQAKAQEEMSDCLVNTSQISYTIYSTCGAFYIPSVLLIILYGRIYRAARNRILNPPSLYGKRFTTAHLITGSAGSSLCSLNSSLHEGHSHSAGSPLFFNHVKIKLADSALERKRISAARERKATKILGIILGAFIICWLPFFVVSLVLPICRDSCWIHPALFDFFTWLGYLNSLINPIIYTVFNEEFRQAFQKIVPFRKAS

Structure (SMILES) | Ki (5-HT7 receptor [1]) | Ki (5-HT1A) | Ki (5-HT1B) | Ki (5-HT1D) | Ki (5-HT2A) | Ki (5-HT2B) | Ki (5-HT2C) | Ki (5-HT4) | Ki (5-HT5) | Ki (5-HT6) | Ki (alpha 1 adrenergic) | Ki (alpha 2 adrenergic) | antagonist character (5-HT7 receptor [2]) | inhibition (5-HT7 receptor [2]) | Kb (5-HT7 receptor [2]) | ratio of extravasation, stimulated side over unstimulated side ([3]; at ID100 of 1 mg/Kg, saline controls about 2.0) | ID100 ([3]; rat dural plasma protein extravasation, route not given)
CN(CCN1CCN(c2nccnc2-c2ccc(F)cc2)CC1)S(=O)(=O)c1cn(C)cn1 [Example 17, 1-Methyl-1H-imidazole-4-sulfonic acid {2-[3′-(4-fluoro-phenyl)-2,3,5,6-tetrahydro-[1,2′]bipyrazinyl-4-yl]-ethyl}-methyl-amide hydrochloride] | ~33.5 nM and 33.5 nM | 1500 nM | > 3580 nM | > 2320 nM | > 7470 nM | > 6810 nM | > 8360 nM | > 6310 nM | > 6710 nM | > 5830 nM | > 1770 nM | > 2430 nM |  |  |  |  | 
CN(CCN1CCN(c2nccnc2-c2ccc(F)cc2)CC1)S(=O)(=O)c1ccc(F)cc1.Cl [Example 4, 4-Fluoro-N-{2-[3′-(4-fluoro-phenyl)-2,3,5,6-tetrahydro-[1,2′]bipyrazinyl-4-yl]-ethyl}-N-methyl-benzenesulfonamide hydrochloride] |  |  |  |  |  |  |  |  |  |  |  |  | full antagonists | about 128% | ~24 nM |  | 
COCc1ccc(-c2nccnc2N2CCN(CCN(C)S(=O)(=O)c3cnn(C)c3)CC2)cc1.Cl [Example 25, 1-Methyl-1H-pyrazole-4-sulfonic acid {2-[3′-(4-methoxymethyl-phenyl)-2,3,5,6-tetrahydro-[1,2′]bipyrazinyl-4-yl]-ethyl}-methyl-amide hydrochloride] | ~19.4 nM and 19.4 nM | 2070 nM | 3240 nM | 1270 nM | > 7470 nM | > 6810 nM | > 8360 nM | > 4120 nM | 3320 nM | > 5830 nM | 2330 nM | > 5290 nM | full antagonists |  | ~8.5 nM | about 1.1 | 1 mg/kg
